Measured values published in patent US8618158B2, “Therapeutic agents” (Cancer Research Technology Limited, priority 2008, dated 2013).
Where two headings read alike, the source gives them in different places. One block for each molecule: values may come before it.

Columns and labels:
SJSA-1 cell line [1] = test: Western blot of MDM2, p53 and p21 levels in SJSA-1 cells; type: cell-based; conditions: for levels of p53, p21 and MDM2 protein (FIG. 1): MDM2 amplified SJSA-1 cells, 1-20 μM
Description: The medium was then aspirated and the dishes were washed with 3 mL of cold PBS.
The samples were then loaded onto a precast 4-20% gradient polyacrylamide Tris-Glycine gels (15 wells, 1.5 mm thickness, Invitrogen Life Technologies), along with a pre-stained marker protein (SeeBlue, Invitrogen). The Gels were processed in Novex XCell (Invitrogen) at 180V and blotted onto a High Bond C membrane (Amersham Life Science) overnight at 30V.
The membrane was then blocked for one hour at room temperature in TBS-Tween containing 5% non-fat milk (TBST-M) followed by incubation with primary antibodies for MDM2 (MDM2-Ab 1, 1:500, Oncogene), p53 (p53-D07, 1:1000, Novacastra), p21 (p21 Ab1, 1:100, Oncogene) and Actin (Actin AC40, 1:1000, Sigma) in PBST-M for 1 hour.
The membrane was then washed three times in TBST (15 minutes per wash) and then incubated for an additional 1 hour with a anti mouse or a rabbit horseradish peroxidase (HRP) secondary antibody (Dako, 1:1000) in PBST-M followed by a final wash consisting of six washes with TBST at 5 minutes per wash.

p53−/− HCT116 cells = test: Growth inhibition in p53−/− HCT116 cells; type: cell-based; conditions: comparison of p53 wt and p53−/− HCT116
[2] = test system: wild-type p53 HCT116 cells; test: Growth inhibition in p53 wild-type HCT116 cells; type: cell-based
MDM2-p53 interaction = MDM2-p53 interaction (Homo sapiens (Human), UniProt Q00987); test: MDM2-p53 ELISA binding assay
Sequence of MDM2-p53 interaction (Q00987 whole entry): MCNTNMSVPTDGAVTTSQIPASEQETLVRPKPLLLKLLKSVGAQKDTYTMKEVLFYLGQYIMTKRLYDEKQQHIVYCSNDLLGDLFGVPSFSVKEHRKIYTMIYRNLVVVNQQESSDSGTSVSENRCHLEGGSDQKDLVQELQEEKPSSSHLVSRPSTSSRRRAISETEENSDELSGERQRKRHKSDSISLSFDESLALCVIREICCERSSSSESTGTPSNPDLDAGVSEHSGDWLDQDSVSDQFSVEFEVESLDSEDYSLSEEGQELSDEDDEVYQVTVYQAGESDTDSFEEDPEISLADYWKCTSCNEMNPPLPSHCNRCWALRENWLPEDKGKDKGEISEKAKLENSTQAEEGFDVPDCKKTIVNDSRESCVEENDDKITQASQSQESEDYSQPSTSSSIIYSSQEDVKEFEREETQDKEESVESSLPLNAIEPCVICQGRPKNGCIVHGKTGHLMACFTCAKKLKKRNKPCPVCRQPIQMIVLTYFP
Description: Streptavidin-coated 96-well plates are used to immobilise a biotin-tagged IP3 p53-derived peptide ([…]). This is a peptide analogue derived from the p53 binding site for MDM2 ([…]). […] Aliquots of MDM2 generated by in vitro translation are pre-incubated for 20 minutes at room temperature (i.e. 20-25° C.) with test compounds and controls, before transfer into the IP3-coated 96-well plates.
3-(4-Chloro-phenyl)-3-(4-hydroxy-3,5-dimethoxy-benzyloxy)-2-propyl-2,3-dihydro-isoindolin-1-one (NU8231) is currently included as a standard “lead compound” positive control. […] The AP peptide is included as a positive control for biological evaluation of the isoindolinones in the cell free binding assays.
All compounds are dissolved in DMSO and tested at a range of concentrations in the presence of a fixed final concentration of 5% DMSO.

[3] = test system: p53-dependent transcriptional activity; test: Luciferase based p53-dependent reporter gene assay; type: cell-based
SJSA-1 cell line [4] = test: Western blot of PARP and caspase-3 cleavage in SJSA-1 cells; type: cell-based; conditions: SJSA-1, after 48 hours of treatment, in comparison to nutlin-3
[5] = Table 1, mean ± SE of n = 3 unless indicated, read-out: ELISA IC50
[6] = Table 5, read-out: MDM2-p53 ELISA IC50
[7] = Table 2, mean ± SE of n = 3 unless indicated, read-out: ELISA IC50

Structure (SMILES): COc1ccc(C2=NC(c3ccc(Cl)cc3)C(c3ccc(Cl)cc3)N2C(=O)N2CCNC(=O)C2)c(OC(C)C)c1 (racemic) [Nutlin-3, (±)-4-[4,5-bis-(4-Chlorophenyl)-2-(2-isopropoxy-4-methoxyphenyl)-4,5-dihydroimidazole-1-carbonyl]-piperazin-2-one]
MDM2, p53 and p21 levels by Western blotting (FIG. 12) (SJSA-1 cell line [1]; SJSA-1 cells, 1 to 20 μM): strong dose dependent increase in MDM2, p53 and p21 levels
growth inhibition p53 wt versus p53−/− HCT116 (FIGS. 5 and 6) (p53−/− HCT116 cells): greater growth inhibition in the p53 wt HCT116 cell line than the p53−/− HCT116 cells
growth inhibition (FIGS. 5 and 6) [2]: growth inhibitory

IC50 (MDM2-p53 interaction; [5]): 1500 ± 300 nM
Structure (SMILES): O=C1c2ccccc2C(OC2C=C[C@@H](O)C2)(c2ccc(Cl)cc2)N1Cc1ccc(Cl)cc1 (stereo in doubt) [NU8293, 3-(4-Chlorophenyl)-3-(4-hydroxycyclopent-2-enyloxy)-2-(4-chlorobenzyl) isoindolin-1-one]
levels of p53, p21 and MDM2 protein (FIG. 1) (SJSA-1 cell line [1]): induction of increased levels of p53, p21 and MDM2 protein
p53 dependent transcriptional activity (FIG. 3) [3]: activation of p53 dependent transcriptional activity

IC50 (MDM2-p53 interaction; [5]): 1400 ± 400 nM
Structure (SMILES): Cc1ccc(CN2C(=O)c3ccccc3C2(O[C@H]2C=C[C@@H](O)C2)c2ccc(Cl)cc2)cc1 (stereo in doubt) [NU8295, 3-(4-Chlorophenyl)-3-(4-hydroxycyclopent-2-enyloxy)-2-(4-methylbenzyl) isoindolin-1-one]
levels of p53, p21 and MDM2 protein (FIG. 1) (SJSA-1 cell line [1]): induction of increased levels of p53, p21 and MDM2 protein

Structure (SMILES): O=C1c2ccccc2C(O[C@H]2C=C[C@@H](O)C2)(c2ccc(Cl)cc2)N1Cc1ccc([N+](=O)[O-])cc1 (stereo in doubt) [NU8297, 3-(4-Chlorophenyl)-3-(4-hydroxycyclopent-2-enyloxy)-2-(4-nitrobenzyl) isoindolin-1-one]
levels of p53, p21 and MDM2 protein (FIG. 1) (SJSA-1 cell line [1]): did not show any evidence of activity
p53 dependent transcriptional activity (FIG. 3) [3]: activation of p53 dependent transcriptional activity

Structure (SMILES): O=C1c2ccccc2C(O[C@H]2C=C[C@@H](O)C2)(c2ccc(Cl)cc2)N1Cc1ccccc1 (stereo in doubt) [NU8298, 2-Benzyl-3-(4-chlorophenyl)-3-(4-hydroxycyclopent-2-enyloxy) isoindolin-1-one]
IC50 (MDM2-p53 interaction; [5]): 2300 ± 300 nM

IC50 (MDM2-p53 interaction; [6]): 1500 nM
Structure (SMILES): O=C1c2ccccc2C(OCC2(CO)CC2)(c2ccc(Cl)cc2)N1Cc1ccc(I)cc1 (stereo not drawn) [NCL-00014529, 3-(4-chlorophenyl)-3-(1-hydroxymethylcyclopropylmethoxy)-2-(4-iodobenzyl)-2,3-dihydroisoindol-1-one]

IC50 (MDM2-p53 interaction; [6]): 96000 nM
Structure (SMILES): O=C1c2ccccc2C(O)(c2ccc(Cl)cc2)N1Cc1cccc2ccccc12 (stereo not drawn) [NCL-00016046, 3-(4-chlorophenyl)-3-hydroxy-2-naphthalen-1-ylmethyl-2,3-dihydroisoindol-1-one]

IC50 (MDM2-p53 interaction; [6]): 9460 nM
Structure (SMILES): O=C1c2ccccc2C(O)(c2ccc(F)cc2)N1Cc1ccc([N+](=O)[O-])cc1 (stereo not drawn) [NCL-00016657, 3-(4-fluorophenyl)-3-hydroxy-2-(4-nitrobenzyl)-2,3-dihydroisoindol-1-one]

Structure (SMILES): O=C1c2ccccc2C(O[C@H]2CC[C@@H](O)C2)(c2ccc(Cl)cc2)N1Cc1ccc([N+](=O)[O-])cc1 (stereo partly drawn) [NU8296, 3-(4-chlorophenyl)-3-((1S,3R)-3-hydroxycyclopentyloxy)-2-(4-nitrobenzyl)isoindolin-1-one]
PARP and caspase-3 cleavage (FIG. 4) (SJSA-1 cell line [4]): comparable to those observed with nutlin-3
p53 dependent transcriptional activity (FIG. 3) [3]: activation of p53 dependent transcriptional activity

IC50 (MDM2-p53 interaction; [7]): 402 ± 9 nM
Structure (SMILES): O=C1c2ccccc2C(OC/C=C\CO)(c2ccc(Cl)cc2)N1Cc1ccc([N+](=O)[O-])cc1 (stereo not drawn) [NU8350, 3-(4-Chlorophenyl)-3-(4-hydroxybut-2-enyloxy)-2-(4-nitrobenzyl)-2,3-dihydroisoindol-1-one]

IC50 (MDM2-p53 interaction; [7]): 405 ± 10 nM
Structure (SMILES): O=C1c2ccccc2C(OCC=CCO)(c2ccc(Cl)cc2)N1Cc1ccc([N+](=O)[O-])cc1 (stereo not drawn) [NU8351, 3-(4-Chlorophenyl)-3-(4-hydroxybut-2-enyloxy)-2-(4-nitrobenzyl)-2,3-dihydroisoindol-1-one]

IC50 (MDM2-p53 interaction; [7]): 395 ± 75 nM
Structure (SMILES): CC(C)(CO)COC1(c2ccc(Cl)cc2)c2ccccc2C(=O)N1Cc1ccc([N+](=O)[O-])cc1 (stereo not drawn) [NU8353, 3-(4-Chloro-phenyl)-3-(3-hydroxy-2,2-dimethyl-propoxy)-2-(4-nitro-benzyl)-2,3-dihydro-isoindol-1-one]

IC50 (MDM2-p53 interaction; [7]): 582 ± 75 nM
Structure (SMILES): O=C1c2ccccc2C(OC[C@H]2CC[C@H](CO)CC2)(c2ccc(Cl)cc2)N1Cc1ccc([N+](=O)[O-])cc1 (stereo partly drawn) [NU8358, 3-(4-Chlorophenyl)-3-(4-hydroxymethylcyclohexylmethoxy)-2-(4-nitrobenzyl)-2,3-dihydroisoindol-1-one]

Structure (SMILES): O=C1c2ccccc2C(OCCCCO)(c2ccc(Cl)cc2)N1CCc1ccc([N+](=O)[O-])cc1 (stereo not drawn) [NU8362, 3-(4-Chlorophenyl)-3-(4-hydroxybutoxy)-2-[2-(4-nitrophenyl)ethyl]-2,3-dihydroisoindol-1-one]
IC50 (MDM2-p53 interaction; [5]): 3200 ± 1000 nM

Structure (SMILES): O=C1c2ccccc2C(OCCCCO)(c2ccc(Br)cc2)N1Cc1ccc([N+](=O)[O-])cc1 (stereo not drawn) [NU8390, 3-(4-bromophenyl)-3-(4-hydroxybutoxy)-2-(4-nitrobenzyl)isoindolin-1-one]
IC50 (MDM2-p53 interaction; Table 3, read-out: MDM2 IC50): 570 ± 59 nM

IC50 (MDM2-p53 interaction; Table 3, read-out: MDM2 IC50): 1400 ± 160 nM
Structure (SMILES): O=C1c2ccccc2C(OCCCO)(c2ccc(Br)cc2)N1Cc1ccc([N+](=O)[O-])cc1 (stereo not drawn) [NU8392, 3-(4-bromophenyl)-3-(3-hydroxypropoxy)-2-(4-nitrobenzyl)isoindolin-1-one]

IC50 (MDM2-p53 interaction; Table 4, read-out: MDM2 IC50): 2310 ± 560 nM
Structure (SMILES): O=C1c2ccccc2C(OCC2(CO)CC2)(c2ccc(Cl)cc2)N1Cc1ccc(Cl)cc1 (stereo not drawn) [NU8416, 2-(4-chlorobenzyl)-3-(4-chlorophenyl)-3-((1-(hydroxymethyl)cyclopropyl)methoxy)isoindolin-1-one]
